ChEMBL document CHEMBL4334494, “Recent advances in the targeting of human DNA ligase I as a potential new strategy for cancer treatment” (Eur J Med Chem, 2019)
Values belong to the molecule of their own block, whether it stands above or below them.

Experiments:
[1] = biological target: T1, DNA ligase 1 (Homo sapiens, UniProt P18858); assay: Inhibition of human DNA ligase 1 at 50 uM using 52-mer DNA/25-mer DNA/27-mer DNA as substrate by fluorescence assay relative to control
[2] = biological target: T1, DNA ligase 1; assay: Inhibition of human DNA ligase 1 at 25 uM using nicked DNA as substrate after 30 mins relative to control
[3] = biological target: T1, DNA ligase 1; assay: Inhibition of human DNA ligase 1 expressed in Escherichia coli BL21DE3RP cells at 50 uM using 52-mer DNA/25-mer DNA/27-mer DNA as substrate after 30 mins by Cyanin3 dye-based fluorescence assay relative to control
[4] = test system: HCT-116; assay: Antiproliferative activity against human HCT116 cells at 100 uM relative to control; type: functional
[5] = test system: HEK293; assay: Cytotoxicity against HEK293 cells at 100 uM relative to control; type: cell-based; details: human, hek293, 100 µM
[6] = test system: HepG2; assay: Antiproliferative activity against human HepG2 cells at 100 uM relative to control; type: functional
[7] = test system: MDA-MB-231; assay: Antiproliferative activity against human MDA-MB-231 cells at 100 uM relative to control; type: functional
[8] = test system: A549; assay: Antiproliferative activity against human A549 cells at 100 uM relative to control; type: functional
[9] = test system: DLD-1; assay: Antiproliferative activity against human DLD1 cells at 100 uM relative to control; type: functional

T1 sequence (P18858 whole entry): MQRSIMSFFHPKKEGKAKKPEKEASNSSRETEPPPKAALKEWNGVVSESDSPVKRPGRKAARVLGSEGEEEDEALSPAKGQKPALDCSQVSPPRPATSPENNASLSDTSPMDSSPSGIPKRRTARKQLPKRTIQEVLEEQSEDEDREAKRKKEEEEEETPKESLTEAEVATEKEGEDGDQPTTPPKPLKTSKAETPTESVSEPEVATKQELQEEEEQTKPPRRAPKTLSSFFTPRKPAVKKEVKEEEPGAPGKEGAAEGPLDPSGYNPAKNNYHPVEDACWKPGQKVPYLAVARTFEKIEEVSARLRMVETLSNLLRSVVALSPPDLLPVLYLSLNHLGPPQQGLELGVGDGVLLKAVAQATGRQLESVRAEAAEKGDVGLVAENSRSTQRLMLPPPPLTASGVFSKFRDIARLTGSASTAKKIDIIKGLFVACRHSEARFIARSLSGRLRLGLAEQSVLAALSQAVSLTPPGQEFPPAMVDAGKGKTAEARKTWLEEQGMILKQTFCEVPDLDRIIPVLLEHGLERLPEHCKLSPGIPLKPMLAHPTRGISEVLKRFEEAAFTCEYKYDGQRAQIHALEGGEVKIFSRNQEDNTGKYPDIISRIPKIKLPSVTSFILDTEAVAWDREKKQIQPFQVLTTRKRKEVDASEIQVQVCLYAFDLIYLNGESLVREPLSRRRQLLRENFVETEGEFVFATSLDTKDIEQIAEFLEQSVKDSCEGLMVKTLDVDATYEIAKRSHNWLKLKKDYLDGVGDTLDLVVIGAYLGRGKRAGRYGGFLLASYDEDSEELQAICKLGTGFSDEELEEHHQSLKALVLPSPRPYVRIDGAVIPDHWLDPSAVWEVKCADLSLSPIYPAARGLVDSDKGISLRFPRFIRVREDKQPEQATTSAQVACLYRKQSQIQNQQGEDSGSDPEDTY

Compound: COc1ccc(/C=C/c2cc(=O)oc3c2ccc2c(OC)cccc23)cc1OC
inhibition [2]: > 50%

Compound: COc1cccc2c1ccc1c(/C=C/c3ccc([N+](=O)[O-])cc3)cc(=O)oc12
inhibition [2]: > 90%

Compound: O=c1cc(/C=C/c2ccccc2)c2ccc3ccccc3c2o1
inhibition [2]: < 50%

Compound: COc1ccc(/C=C/c2cc(=O)oc3c2ccc2ccccc23)c(OC)c1
inhibition [2]: < 50%

Compound: COc1cccc(NC(=S)NCC23C=CC(O2)C2C(=O)N(c4ccccc4Cl)C(=O)C23)c1 (configuration not stated)
inhibition [1]: 22.4%

Compound: COc1ccc(OC)c(/C=C/c2cc(=O)oc3c2ccc2c(OC)cccc23)c1
inhibition [2]: < 50%

Compound: CCOC(=O)C1=C(C)NC(=O)NC1c1cc(/C=N/NC(=O)Nc2ccc(F)cc2)c(O)c(C(C)(C)C)c1 (configuration not stated)
inhibition at 100 µM [4]: > 80% | Activity [5]: > 80% | inhibition at 100 µM [6]: > 80% | inhibition at 100 µM [7]: > 80% | inhibition at 100 µM [8]: > 80% | inhibition at 100 µM [9]: > 80%

Compound: CC(=O)c1ccc(NC(=O)Nc2ccc3nc(C)cc(NC(=O)c4ccccc4)c3c2)cc1
inhibition [1]: 76.2%

Compound: COc1ccc(OC)c(/C=C/c2cc(=O)oc3c2ccc2ccccc23)c1
inhibition [2]: < 50%

Compound: COc1ccccc1/C=C/c1cc(=O)oc2c1ccc1c(C)cccc12
inhibition [2]: < 50%

Compound: COc1cc(/C=C/c2cc(=O)oc3c2ccc2ccccc23)cc(OC)c1OC
inhibition [2]: < 50%

Compound: COc1ccc(OC)c(/C=C/c2cc(=O)oc3c2ccc2c(C)cccc23)c1
inhibition [2]: < 50%

Compound: CCOC(=O)C1=C(C)NC(=O)NC1c1cc(/C=N/NC(=O)Nc2cccc(OC)c2)c(O)c(C(C)(C)C)c1 (configuration not stated)
inhibition at 100 µM [4]: > 80% | Activity [5]: > 80% | inhibition at 100 µM [6]: > 80% | inhibition at 100 µM [7]: > 80% | inhibition at 100 µM [8]: > 80% | inhibition at 100 µM [9]: > 80%

Compound: CCOC(=O)C1=C(C)NC(=S)NC1c1cc(/C=N/NC(=S)Nc2ccccc2)c(O)c(C(C)(C)C)c1 (configuration not stated)
inhibition at 100 µM [4]: < 80% | Activity [5]: < 80% | inhibition at 100 µM [6]: < 80% | inhibition at 100 µM [7]: < 80% | inhibition at 100 µM [8]: < 80% | inhibition at 100 µM [9]: < 80%

Compound: CCOC(=O)C1=C(C)NC(=O)NC1c1cc(C)c(O)c(/C=N/NC(N)=O)c1 (configuration not stated)
inhibition at 100 µM [4]: < 80% | Activity [5]: < 80% | inhibition at 100 µM [6]: < 80% | inhibition at 100 µM [7]: < 80% | inhibition at 100 µM [8]: < 80% | inhibition at 100 µM [9]: < 80%

Compound: CCOC(=O)N1CCN(CC(=O)Nc2cc(C)nc3ccc(NC(=O)Nc4ccc(C)c(Cl)c4)cc23)CC1
inhibition [1]: 98.6%

Compound: COc1ccc(NC(=O)Nc2ccc3nc(C)cc(NC(=O)c4ccccc4Cl)c3c2)cc1
inhibition [1]: 12.2%

Compound: CCOC(=O)C1=C(C)NC(=O)NC1c1cc(/C=N/NC(=S)Nc2ccc(Cl)cc2)c(O)c(C(C)(C)C)c1 (configuration not stated)
inhibition at 100 µM [4]: > 80% | Activity [5]: > 80% | inhibition at 100 µM [6]: > 80% | inhibition at 100 µM [7]: > 80% | inhibition at 100 µM [8]: > 80% | inhibition at 100 µM [9]: > 80%

Compound: COc1cccc2c1ccc1c(/C=C/c3ccccc3)cc(=O)oc12
inhibition [2]: > 50%

Compound: COc1cccc(OC)c1/C=C/c1cc(=O)oc2c1ccc1c(OC)cccc12
inhibition [2]: < 50%

Compound: Cc1cccc2c1ccc1c(/C=C/c3ccccc3)cc(=O)oc12
inhibition [2]: < 50%

Compound: CCOC(=O)C1=C(C)NC(=O)NC1c1cc(/C=N/NC(N)=S)c(O)c(C(C)(C)C)c1 (configuration not stated)
inhibition at 100 µM [4]: > 80% | Activity [5]: > 80% | inhibition at 100 µM [6]: > 80% | inhibition at 100 µM [7]: > 80% | inhibition at 100 µM [8]: > 80% | inhibition at 100 µM [9]: > 80%

Further lines, results first:

inhibition [1]: 99.6%
Compound: O=C1NC(=O)/C(=C/c2ccc(OCCCCCOc3cccc(C(=O)/C=C/c4ccc5c(c4)OCO5)c3)cc2)S1

inhibition [3]: > 75%
Compound: COc1ccc(/C=C2\CN(C(=S)NCCc3ccccc3)C/C(=C\c3ccc(OC)cc3)C2=O)cc1

inhibition [3]: > 75%
Compound: Cc1ccc(/C=C2\CN(C(=S)Nc3ccccc3)C/C(=C\c3ccc(C)cc3)C2=O)cc1

inhibition [3]: > 75%
Compound: O=C1/C(=C/c2ccc(F)cc2)CN(c2nc(-c3ccccc3)cs2)C/C1=C\c1ccc(F)cc1

inhibition [3]: > 75%
Compound: Cc1ccccc1/C=C1\CN(C(=S)NCCc2ccccc2)C/C(=C\c2ccccc2C)C1=O

inhibition [3]: > 75%
Compound: CC(C)c1ccc(/C=C2\CN(c3nc(-c4ccccc4)cs3)C/C(=C\c3ccc(C(C)C)cc3)C2=O)cc1

inhibition [3]: > 75%
Compound: COc1ccc(/C=C2\CN(c3nc(-c4ccccc4)cs3)C/C(=C\c3ccc(OC)cc3)C2=O)cc1

inhibition [3]: > 75%
Compound: O=C1/C(=C/c2ccc(F)cc2)CN(C(=S)Nc2ccccc2)C/C1=C\c1ccc(F)cc1

inhibition [3]: > 75%
Compound: CC(C)c1ccc(/C=C2\CN(C(=S)NCc3ccccc3)C/C(=C\c3ccc(C(C)C)cc3)C2=O)cc1

inhibition [3]: > 75%
Compound: O=C1/C(=C/c2ccccc2F)CN(C(=S)NC(=O)c2ccccc2)C/C1=C\c1ccccc1F
